The results in this text go back to PubChem BioAssay AID1996.

Converted amounts (≈) assume the structure as drawn. Bounds are passed on as bounds.

The conditions of the series: buffer; pH 7.4; 200.0 µM.
`Cc1ccc2nc(-c3ccncc3)[nH]c2c1` returned a kinetic solubility of 28.1 µg/mL (≈ 134 µM). `Cc1cc(C)c(S(=O)(=O)c2cccc(Cl)c2)c(=O)[nH]1` registered a kinetic solubility of over 44.7 µg/mL. In turn, `CCn1c(SCC#N)nc2cc(S(=O)(=O)N3CCOCC3)ccc21` returned a kinetic solubility of over 55 µg/mL. `O=C(Cc1ccc(Cl)cc1)N1CCN(c2ccc(F)cc2)CC1` registered a kinetic solubility of 19 µg/mL (≈ 57.1 µM).

`CC(=O)c1ccc(NC(=O)CN2CCCC2)cc1`: the kinetic solubility is over 36.9 µg/mL. Regarding `Cc1cccc(C)c1C(=NCCN(C)C)c1ccccc1.Cl`, the kinetic solubility was over 53 µg/mL. Consider `COc1ccc(-c2nc3ccccc3c(=O)[nH]2)cc1`, for which the solubility (kinetic) was 2.2 µg/mL (≈ 8.72 µM).

The compound `C=CCOC(=O)c1sc(NC(=O)c2ccc(OC)cc2)nc1C` yielded a kinetic solubility of under 0.4 µg/mL.

The compound `COC(=O)c1sc(S(=O)(=O)N2CCN(c3ccccc3F)CC2)c(C(=O)OC)c1C` gave a solubility (kinetic) of 2.1 µg/mL (≈ 4.6 µM). For `CC1CN(C2=NC(=O)/C(=C/c3ccncc3)S2)CC(C)O1` (configuration not stated) the value was over 45.5 µg/mL; for `O=C(Nc1ccc([N+](=O)[O-])cc1)OCCc1ccccn1`, 0.6 µg/mL (≈ 2.09 µM); for `Nc1c(C(=O)Nc2ccccc2)c2nc3ccccc3nc2n1-c1ccc(O)cc1`, 0.7 µg/mL (≈ 1.77 µM). As to `CCOC(=O)c1cccc(NC(=O)CCc2ccccc2)c1`, the kinetic solubility worked out at 33.1 µg/mL (≈ 111 µM).

In turn, `COc1ccccc1CNC(=O)COC(=O)c1ccc(S(=O)(=O)N2CCCCC2)cc1` showed a kinetic solubility of 2.1 µg/mL (≈ 4.7 µM).

`O=C(c1ccc2nc(Cc3ccccc3F)oc2c1)N1CCCC1` gave a kinetic solubility of 33.5 µg/mL (≈ 103 µM). As for `CC(NC(=O)COC(=O)CN1C(=O)C2CCCCC2C1=O)c1ccccc1` (configuration not stated), the figure is over 55.9 µg/mL; as for `Cn1cc(S(=O)(=O)N2CCOCC2)cc1C(=O)O`, over 41.1 µg/mL; as for `COc1cc2[nH]c(C(=O)N(C)Cc3ccccc3)cc2c(OC)c1OC`, 35.7 µg/mL (≈ 101 µM). `COc1ccc(CC(=O)NCCc2cnc[nH]2)cc1` displayed a solubility (kinetic) of over 38.9 µg/mL. For `O=C(CCn1c(=S)oc2ccccc21)NCCC1=CCCCC1` the value was 0.8 µg/mL (≈ 2.42 µM); for `Nc1ccccc1N1C(=O)c2cccc3cccc(c23)C1=O`, 4.3 µg/mL (≈ 14.9 µM); for `COC(=O)c1ccc2c(c1)C(C)(C)C(/C=C/c1ccc(O)cc1)=[N+]2C.[I-]`, 41.6 µg/mL.

`COc1ccc(NC(=O)Nc2ccc([N+](=O)[O-])cc2)cn1` registered a solubility (kinetic) of 0.9 µg/mL (≈ 3.12 µM). `CCc1ccc(OCC(=O)OC(C)C(=O)NC2CC2)cc1` (configuration not stated) had a kinetic solubility of over 43.7 µg/mL.

Compound `O=C(O)CNC1c2ccccc2CSc2ccccc21` (configuration not stated) came in with a solubility (kinetic) of over 42.8 µg/mL. The compound `Cc1cc(NC(=O)COc2ccccc2)ccc1Cl` showed a solubility (kinetic) of 1.9 µg/mL (≈ 6.89 µM). For `O=S(=O)(NCc1cn2ccccc2n1)c1cccs1` the value was over 44 µg/mL; for `O=C(NCCc1ccc(F)cc1)N[C@@H](Cc1ccccc1)C(=O)O`, over 49.6 µg/mL. As for `CCC(C)n1c(O)c(C=NCCc2ccccc2)c(=O)[nH]c1=S` (configuration not stated), the figure is 5.1 µg/mL (≈ 15.4 µM); as for `Cc1nc(-c2cccc(NC(=O)c3ccc(Br)o3)c2)cs1`, 17.2 µg/mL (≈ 47.4 µM).

Consider `Cc1nc(NC(=O)CSc2nc(N)cc(N)n2)sc1C`, for which the kinetic solubility was over 46.6 µg/mL. As for `COC(=O)c1ccccc1NC(=O)CSc1nncn1C`, the figure is over 46 µg/mL. For `COc1ccccc1C(=O)C1CCCN(C(=O)C2CCCC2)C1` (configuration not stated) the value was over 47.3 µg/mL; for `CCc1nc2ccccc2c(C(=O)OCC(=O)Nc2ccc(NC(C)=O)cc2)c1C`, 12.1 µg/mL (≈ 29.8 µM). On to `Cc1ccc(C(=O)N/C(=C\c2cccs2)C(=O)N2CCOCC2)cc1C`, for which the kinetic solubility was over 55.6 µg/mL. `O=S(=O)(Nc1cccc2cccnc12)c1ccccc1` registered a solubility (kinetic) of 3.9 µg/mL (≈ 13.7 µM). The compound `Cc1ccc(/C=C/C(=O)Oc2ccc(C#N)cc2)o1` yielded a kinetic solubility of under 0.5 µg/mL. As for `S=C(NC1CC1)NC1CCCc2ccccc21` (configuration not stated), the figure is over 37 µg/mL; as for `CC(C)CN(C(=O)CSc1nncn1C)C1CCS(=O)(=O)C1` (configuration not stated), over 52 µg/mL. On to `CC1CCCN(CCC(=O)Nc2ccc(F)c(F)c2)C1` (configuration not stated), for which the kinetic solubility is over 42.3 µg/mL. With `CSc1ncccc1C(=O)OCC(=O)NC1CCC(C)CC1` (configuration not stated), the solubility (kinetic) stood at 16.4 µg/mL (≈ 50.9 µM). Compound `Cc1ccc(NC(=O)C(=O)C2C(=O)Nc3ccccc32)cc1` (configuration not stated) gave a kinetic solubility of 39.8 µg/mL (≈ 135 µM). In turn, `CCc1ccccc1NC(=O)C1CCN(c2cnccn2)CC1` registered a kinetic solubility of over 46.6 µg/mL. As for `C=CCn1c(=S)[nH]c2cc(-c3ccccc3)sc2c1=O`, the figure is under 0.3 µg/mL; as for `CC1=C(C)CC(C(=O)NCCCN2CCCC2=O)C(C(=O)O)C1` (configuration not stated), over 48.4 µg/mL; as for `Cc1ccc(NS(=O)(=O)c2csc(C(N)=O)c2)cc1C`, 18.9 µg/mL (≈ 60.9 µM). For `O=C(C[n+]1ccc(/C=N/O)cc1)NCc1ccccc1.[Cl-]`, the kinetic solubility stood at 41.3 µg/mL. Regarding `O=C(Cn1cnc2ccccc21)c1ccc(Br)cc1`, the solubility (kinetic) amounted to 40 µg/mL (≈ 127 µM). For `Cc1ccsc1CNC1CCCCC1` the value was 24.1 µg/mL (≈ 115 µM); for `COc1ccc(-n2c(-c3ccc(C)cc3)nc3ccccc3c2=O)cc1`, under 0.4 µg/mL; for `CC12CC(O)C3c4ccc(O)cc4CCC3C1CC/C2=N\O` (configuration not stated), over 45.2 µg/mL. In turn, `O=S(=O)(c1ccc(Cl)cc1)N1CCC2(CC1)OCCO2` showed a kinetic solubility of over 47.7 µg/mL.
